{"source": "patent US12414968B2", "about": "“Compositions comprising bacterially derived minicells and methods of using the same” (EnGeneIC Molecular Delivery Pty Ltd, priority 2018, dated 2025)", "molecules": {"B1": {"name": "IFN-γ: type II interferon, given free at 0.5 or 0.75 × 10^4 IU per dose (protein, UniProt P01580 23-155, looked up)", "Interferon gamma": "HGTVIESLESLNNYFNSSGIDVEEKSLFLDIWRNWQKDGDMKILQSQIISFYLRLFEVLKDNQAISNNISVIESHLITTFFSNSKAKKDAFMSIAKFEVNNPQVQRQAFNELIRVVHQLLPESSLRKRKRSRC"}}, "key": {"[1]": {"test_system": "human breast cancer cell line MDA-MB-468", "experiment": "MTS cell proliferation assay, MDA-MB-468", "assay_type": "cell-based", "details": "72 hrs"}, "[2]": {"test_system": "MiaPaca-2 cells", "experiment": "MTS cell proliferation assay, MiaPaca-2", "assay_type": "cell-based, human", "details": "72 hrs"}, "[3]": {"test_system": "Adreno-cortical cancer cell lines ACC01 and ACC07", "experiment": "MTS cell proliferation assay, ACC01 and ACC07", "details": "72 hrs, lines derived from Stage IV patients", "method": "All cells were incubated for a further 72 hrs followed by the colorimetric MTS cell proliferation assay (Cory et al., Cancer Commun., 3(7): 207-12 (1991)) using the CellTiter 96 AQueous One Solution Cell Proliferation Assay (Promega Corp., Madison, Wis., USA), according to the manufacturer's instructions. The colorimetric measurements were read at 490 nm."}, "[4]": {"test_system": "Glioblastoma cell line U87-MG", "experiment": "MTS cell proliferation assay, U87-MG", "assay_type": "cell-based", "details": "72 hrs"}, "[5]": {"test_system": "human colorectal cancer cell lines Caco-2 and HCT116", "experiment": "MTS cell proliferation assay, Caco-2 and HCT116", "assay_type": "cell-based", "details": "72 hrs"}, "[6]": {"test_system": "bone marrow derived dendritic cells (BMDC) with CT26Ep12.1 cells", "experiment": "BMDC / treated CT26Ep12.1 co-culture", "assay_type": "cell-based, mouse", "details": "48 h co-incubation", "description": "The effect of tumor cell death in response to Ep-EDV, Ep-EDV-682, and 682 treatment on dendritic cell maturation was also examined (FIGS. 27E-27I). Bone marrow derived dendritic cells (BMDC) were co-incubated with treated tumor cells (4T1 and CT26Ep12.1) for 48 h, followed by assessment of the production of the type 1 interferons IFNα and IFNβ. Increases in type 1 interferon production by dendritic cells is well established as a mechanism of dendritic cell maturation and enhanced antigen presentation as well as being vital for their interaction with other immune cell subsets including NK cells and T-cells (Fitzgerald-Bocarsly and Feng, 2007; Simmons et al., 2012).\nBone Marrow Derived DCs (BMDC): Bone marrow was isolated from the femurs and tibias of Balb/c mice. […]\nMacrophage and DC/Tumor Cell Co-cultures: CT26Ep12.1 and 4T1 cells were harvested with Versene (Gibco) and cells were collected in 1 mL Eppendorf tubes. […] RAW264.7/tumor cell co-cultures were collected using a cell scraper and samples were stained with DAPI (Sigma), anti-CD45 Brilliant Violet 510 (BioLegend), anti-CD86 APC-Cy7, and anti-CD206 AF488 and assessed by flow cytometry. […] RNA concentration was determined on an Eppendorf biophotometer plus. […] Data was exported to excel and the relative quantitation was calculated from the ΔΔCt."}, "[7]": {"test_system": "MiaPaca-2 GemR cells", "experiment": "MTS cell proliferation assay, MiaPaca-2 GemR", "assay_type": "cell-based, human", "details": "72 hrs"}, "[8]": {"test_system": "human peripheral blood monocytes (PBMCs)", "details": "multiple donors with different STING genotypes; cited from earlier work"}, "[9]": {"test_system": "human STING alleles", "details": "Corrales et al., 2015, Fu et al.; cited from earlier work"}, "[10]": {"test_system": "A549 (lung cancer) xenografts", "experiment": "A549 xenograft, EDVsDox with IFN-γ (FIG. 20)", "assay_type": "in vivo, Balb/c nu/nu mice", "details": "i.v. tail vein; IFN-γ 0.5 × 10^4 IU per dose", "from_the_text": "(§1) Lung cancer: To study the anti-tumor effects of combining ^EGFREDVsDox and IFN-γ (type II IFN) in a lung cancer model, A549 (lung cancer) xenografts in Balb/c nu/nu mice were established and divided into four groups receiving different treatment combinations by intravenous tail vein injection. Group 1 received sterile physiological saline (FIG. 20, open diamonds). Group 2 received IFN-γ (0.5×10^4 IU) per dose (FIG. 20, solid triangles). Group 3 received ^EGFREDVsDox (FIG. 20, solid squares). Group 4 received ^EGFREDVsDox and IFN-γ (0.5×10^4 IU) per dose (FIG. 20, solid circles)."}, "[11]": {"test_system": "MDA-MB 468 xenografts", "experiment": "MDA-MB 468 breast cancer xenograft, EDVsDox with IFN-γ (FIGS. 21, 22)", "assay_type": "in vivo, Balb/c nu/nu mice", "details": "IFN-γ 0.5 × 10^4 IU per dose", "from_the_text": "as §1, with “Breast” for “Lung”, “IFN-γ” for “IFN-γ (type II IFN)”, “breast” for “lung”, “MDA-MB 468” for “A549 (lung cancer)”, “21,” for “20,”"}}}
{"molecule": "CC(=O)O[C@@]12CO[C@@H]1C[C@H](O)[C@@]1(C)C(=O)[C@H](O)C3=C(C)[C@@H](OC(=O)[C@H](O)[C@@H](NC(=O)OC(C)(C)C)c4ccccc4)C[C@@](O)([C@@H](OC(=O)c4ccccc4)[C@H]21)C3(C)C", "note": "[docetaxel]", "values": [{"measurement": "inhibition of proliferation / resistance of the cell line", "setting": "[1]", "result": "resistant"}]}
{"molecule": "O=c1[nH]cc(F)c(=O)[nH]1", "note": "[5-Fluoro Uracil (5-FU), 5-Fluoro Uracil]", "values": [{"measurement": "inhibition of proliferation / resistance of the cells", "setting": "[2]", "result": "resistant"}]}
{"molecule": "CN(Cc1cnc2nc(N)nc(N)c2n1)c1ccc(C(=O)N[C@@H](CCC(=O)O)C(=O)O)cc1", "note": "[mathotrxate]", "values": [{"measurement": "inhibition of proliferation / resistance of the cells", "setting": "[2]", "result": "resistant"}]}
{"molecule": "COC(=O)c1cc2c([nH]1)C(=O)C=C1N(C(=O)c3cc4cc(OC)c(OC)c(OC)c4[nH]3)C[C@H]3C[C@]123", "note": "[duocarmycin]", "values": [{"measurement": "cytotoxic effect / resistance of the cell lines", "setting": "[3]", "result": "potent cytotoxic effects"}]}
{"molecule": "CCc1c2c(nc3ccc(OC(=O)N4CCC(N5CCCCC5)CC4)cc13)-c1cc3c(c(=O)n1C2)COC(=O)[C@]3(O)CC", "note": "[irinotecan]", "values": [{"measurement": "inhibition of proliferation / resistance of the cells", "setting": "[2]", "result": "resistant"}]}
{"molecule": "CC(=O)O[C@H]1C(=O)[C@@]2(C)[C@H]([C@H](OC(=O)c3ccccc3)[C@]3(O)C[C@H](OC(=O)[C@H](O)[C@@H](NC(=O)c4ccccc4)c4ccccc4)C(C)=C1C3(C)C)[C@]1(OC(C)=O)CO[C@@H]1C[C@@H]2O", "note": "[paclitaxel IVAX, paclitaxel]", "values": [{"measurement": "inhibition of proliferation / resistance of the cell line", "setting": "[4]", "result": "resistant"}]}
{"molecule": "CC(=O)O[C@H]1C(=O)[C@@]2(C)[C@H]([C@H](OC(=O)c3ccccc3)[C@]3(O)C[C@H](OC(=O)[C@H](O)[C@@H](NC(=O)c4ccccc4)c4ccccc4)C(C)=C1C3(C)C)[C@]1(OC(C)=O)CO[C@@H]1C[C@@H]2O", "note": "[paclitaxel]", "values": [{"measurement": "cytotoxic effect / resistance of the cell lines", "setting": "[3]", "result": "highly resistant"}, {"measurement": "inhibition of proliferation / resistance of the cell line", "setting": "[1]", "result": "resistant"}]}
{"molecule": "O=C1[O][Pt]2([NH][C@@H]3CCCC[C@H]3[NH]2)[O]C1=O", "note": "[oxaliplatin]", "values": [{"measurement": "inhibition of proliferation / resistance of the cells", "setting": "[2]", "result": "resistant"}]}
{"molecule": "COc1cccc2c1C(=O)c1c(O)c3c(c(O)c1C2=O)C[C@@](O)(C(=O)CO)C[C@@H]3O[C@H]1C[C@H](N)[C@H](O)[C@H](C)O1", "note": "[doxorubicin]", "values": [{"measurement": "inhibition of proliferation / resistance of the cells", "setting": "[2]", "result": "resistant"}, {"measurement": "inhibition of proliferation / resistance of the cell lines", "setting": "[5]", "result": "resistant"}, {"measurement": "inhibition of proliferation / resistance of the cell line", "setting": "[4]", "result": "resistant"}, {"measurement": "increase in IFNβ mRNA production", "setting": "[6]", "result": "~5", "unit": "fold"}, {"measurement": "cytotoxic effect / resistance of the cell lines", "setting": "[3]", "result": "highly resistant"}, {"measurement": "inhibition of proliferation / resistance of the cell line", "setting": "[1]", "result": "resistant"}]}
{"molecule": "O=C1c2c(O)ccc(O)c2C(=O)c2c(NCCNCCO)ccc(NCCNCCO)c21", "note": "[mitoxantrone]", "values": [{"measurement": "cytotoxic effect / resistance of the cell lines", "setting": "[3]", "result": "highly resistant"}]}
{"molecule": "Nc1ccn([C@@H]2O[C@H](CO)[C@@H](O)C2(F)F)c(=O)n1", "note": "[gemzar]", "values": [{"measurement": "inhibition of proliferation / resistance of the cells", "setting": "[2]", "result": "resistant"}, {"measurement": "inhibition of proliferation / resistance of the cells", "setting": "[7]", "result": "resistant"}]}
{"molecule": "Nc1ncnc2c1ncn2[C@@H]1O[C@@H]2COP(O)(=S)O[C@@H]3C(O)[C@@H](COP(O)(=S)O[C@H]2[C@H]1O)O[C@H]3n1cnc2c(N)ncnc21", "note": "(stereo partly drawn) [ML RR-S2 CDA]", "values": [{"measurement": "expression of IFN-β", "setting": "[8]", "result": "dose-dependent expression of IFN-β"}, {"measurement": "activation of human STING alleles", "setting": "[9]", "result": "broadly activate all known human STING alleles"}]}
{"molecule": "Clc1ccc(C(c2ccccc2Cl)C(Cl)Cl)cc1", "note": "(stereo not drawn) [mitotane]", "values": [{"measurement": "cytotoxic effect / resistance of the cell lines", "setting": "[3]", "result": "highly resistant"}]}
{"molecule": "B1", "values": [{"measurement": "Results: anti-tumor efficacy", "setting": "[10]", "result": "no anti-tumor efficacy"}, {"measurement": "Results: anti-tumor efficacy, Exp. #2 (FIG. 22)", "setting": "[11]; listed as IFN-", "result": "no anti-tumor efficacy"}, {"measurement": "Results: anti-tumor efficacy, Exp. #1 (FIG. 21)", "setting": "[11]; i.v. tail vein", "result": "no anti-tumor efficacy"}]}
